Assay results as given in patent publication US20230121797A1, “A COMBINATION OF FLAVONOIDS AND SPHINGOSINE 1 PHOSPHATE LYASE INHIBITORS FOR THE TREATMENT OF LUNG INFLAMMATION” (AC BIOSCIENCE SA, priority 2020, published 2023).
Where two headings read alike, the source gives them in different places.

What was measured:
circulating lymphocytes [1] = conditions: mice, cited from earlier work
circulating lymphocytes [2] = conditions: human subjects, cited from earlier work
Human neutrophils [3] = test: cytochrome c reduction rate (superoxide anion production) by activated neutrophils; format: cell-based
Procedure: Human neutrophils (2×10^6/mL) were incubated in HBSS with TNF-α at 37° C. for 25 minutes. Cells were stimulated with FMLP or PMA in the presence of cytochrome c (1.2 mg/mL final), and the optical density of the supernatants was determined by spectrophotometry (550 nm). For both PMA or FLMP as PMN activators, the IC50 for DHQ inhibition is around 8 μM.
When activated by opsonized bacteria, zymozan, FMLP (Formyl-Methionyl-Leucyl-Phenylalanine) or PMA (phorbolmyristate acetate), neutrophils undergo an oxidative burst resulting in the production of superoxide anion and subsequent hydrogen peroxide. The oxidative burst is mainly mediated by the NADPH oxidase activation, enzyme responsible of the superoxide anion production. […] This effect may come from either a direct anion superoxide scavenging or from the inhibition of NADPH oxidase activation.

Human neutrophils [4] = test: ROS production by activated neutrophils, luminol chemiluminescence; format: cell-based; conditions: for inhibition of the ROS production: DHQ 1p M in the assay medium
Procedure: ROS production is measured using a chemiluminescence standard procedure: briefly, One hundred microliters of human neutrophils (4×10^6/mL) were primed with TNF-α at 37° C. for 25 minutes. 100 μL luminol (1 μM final concentration) and HRP (62.5 U/mL final concentration) in HBSS were added, and 150-μL aliquots were transferred to a prewarmed 96-well luminometer plate. Light emission was recorded by a Berthold MicroLumat Plus luminometer (Berthold Technologies, Hartfordshire, United Kingdom) (data output is in relative light units per second).
In order to further investigate the effect of DHQ on the oxidative burst of neutrophils, the measurement of the ROS production by chemoluminescence has been used which detect both surperoxide anion and hydrogen peroxide. […] This inhibitory effect can be considered as very efficient regarding the fact that the addition of 1p M in the assay medium results in around 80% inhibition of the ROS production in both experiments. The inhibition is not due to a ROS scavenging (as measured by cyt. C reduction) but due to the inhibition of NADPH oxidase.

PMN = test: oxygen consumption of triggered PMN; format: cell-based; conditions: triggered by PMA, FMLP and opsonized zymosan; data not shown
neutrophils = test: activation of neutrophils stimulated by LPS or PMA; format: cell-based
Text: Flavonoids are the largest group of naturally occurring polyphenolic compounds which have shown diverse biological activities depending of their chemical structure including anti-viral activities against a variety of viruses and potent immune-modulating and inflammatory activities. Among flavonoids, Quercetin, and its bioavailable derivatives such as isoquercetin, offer good perspectives to develop new therapeutics to treat cancer, viral infection and pathogenic inflammation (reviewed in Li et al, 2016). Flavonoids have potent anti-inflammatory activities.

Human neutrophils [5] = test: cytochrome c reduction rate (superoxide anion production) by activated neutrophils; format: cell-based; conditions: Resting neutrophils
[6] = system: LPS-stimulated whole blood; conditions: cited from earlier work

Question: For `C/C(=N\O)c1nc([C@@H](O)[C@H](O)[C@H](O)CO)c[nH]1` [Compound 2], which lymphopenia (circulating lymphocytes [1]; single oral doses lower than 30-100 mg/kg) is on record?
Answer: The lymphopenia was “minimal to non-statistically significant effect”.

Question: What about the lymphopenia (circulating lymphocytes [1]; single oral doses of 30-100 mg/kg) of the same molecule?
Answer: Its lymphopenia is 40-60%.

Question: And the “depletion of circulating lymphocytes” value (circulating lymphocytes [1]; single oral doses, 18 h after dosing)?
Answer: Its value is “up to 60%”.

Question: What about the tolerability (circulating lymphocytes [2]; all dose groups) of the same molecule?
Answer: The tolerability was “generally well tolerated”.

Question: What about the “decrease in peripheral lymphocytes” value (circulating lymphocytes [2]; single ascending dose, highest administered dose of 180 mg) of the same molecule?
Answer: The value was ~50%.

Question: With `O=C1c2c(O)cc(O)cc2O[C@H](c2ccc(O)c(O)c2)[C@H]1O` [DHQ, Dihydroquercetin] as the molecule, how does the “cytochrome c reduction (anion superoxide production)” value (“cytochrome c reduction” for short) (Human neutrophils [3]; +FMLP, DHQ 1 μM) read?
Answer: The value was 0.144 dDO/min.

Question: And the “cytochrome c reduction” value (Human neutrophils [3]; +FMLP, DHQ 10 μM)?
Answer: Its value is 0.105 dDO/min.

Question: And the “cytochrome c reduction” value (Human neutrophils [3]; +FMLP, DHQ 100 μM)?
Answer: Its value is 0.040 dDO/min.

Question: And the “cytochrome c reduction” value (Human neutrophils [3]; +PMA, DHQ 1 μM)?
Answer: Its value is 0.110 dDO/min.

Question: And the “cytochrome c reduction” value (Human neutrophils [3]; +PMA, DHQ 10 μM)?
Answer: The value was 0.070 dDO/min.

Question: And the “cytochrome c reduction” value (Human neutrophils [3]; +PMA, DHQ 100 μM)?
Answer: The value was 0.021 dDO/min.

Question: And the IC50 (Human neutrophils [3]; Homo sapiens, Neutrophil, PMA as PMN activator, neutrophils incubated with TNF-α, read-out: IC50 for DHQ inhibition of cytochrome c reduction rate (superoxide anion production))?
Answer: The IC50 was ~8 µM.

Question: What about the “T. half (rise)” value (Human neutrophils [4]; FMLP 10−6 Ml, DHQ 1, 10 or 100 μM, concentration of samples 2-4 not given) of the same molecule?
Answer: The value was 1.55.

Question: And the “inhibition of the ROS production” value (Human neutrophils [4]; neutrophils activated by FMLP)?
Answer: Its value is “around 80%”.

Question: And the “inhibition of the ROS production” value (Human neutrophils [4]; neutrophils activated by PMA)?
Answer: Its value is “around 80%”.

Question: What about the “oxygen consumption of PMN” value (PMN) of the same molecule?
Answer: Its value is “strongly inhibits”.

Question: What about the “effect on the activation of neutrophils” value (neutrophils) of the same molecule?
Answer: The value was “strong inhibitory effect”.

Question: And the “cytochrome c reduction” value (Human neutrophils [5]; DHQ 1 μM)?
Answer: Its value is 0.000 dDO/min.

Question: And the “cytochrome c reduction” value (Human neutrophils [5]; DHQ 10 μM)?
Answer: The value was 0.036 dDO/min.

Question: And the “cytochrome c reduction” value (Human neutrophils [5]; DHQ 100 μM)?
Answer: Its value is 0.086 dDO/min.

Question: Which “effect on the activation of neutrophils” value (neutrophils) does the source give for `O=c1c(O)c(-c2ccc(O)c(O)c2)oc2cc(O)cc(O)c12` [quercetin] here?
Answer: The value was “strong inhibitory effect”.

Question: And the “production of the major inflammatory cytokines TNFα, IL-6, IL-8 and IL-10” value [6]?
Answer: The value was “decreases the production”.
